From patent US20080269213A1, “8-Hydroxyquinoline compounds and methods thereof” (Wyeth, priority 2006, published 2008)
“And” between values parts separate entries of the source, which are not always exact repeats. Equal values may be shown once. Read-outs that look alike come from different tables or passages of the source. Each block holds one molecule with its values, some of them ahead of it.

What was measured:
[1] = molecular target: T1, Agg-1 (Homo sapiens, UniProt O75173); experiment: Agg-1 FRET assay; format: biochemical; settings: for inhibition at 7.4 µM: @ 7400 nM; for IC50: read-out: Agg1 IC50; for inhibition at 50 µM: @ 50000 nM; for inhibition at 33 µM: @ 33000 nM; for inhibition at 67 µM: @ 67000 nM; for inhibition at 22 µM: @ 22000 nM
T1 sequence (O75173 213-837): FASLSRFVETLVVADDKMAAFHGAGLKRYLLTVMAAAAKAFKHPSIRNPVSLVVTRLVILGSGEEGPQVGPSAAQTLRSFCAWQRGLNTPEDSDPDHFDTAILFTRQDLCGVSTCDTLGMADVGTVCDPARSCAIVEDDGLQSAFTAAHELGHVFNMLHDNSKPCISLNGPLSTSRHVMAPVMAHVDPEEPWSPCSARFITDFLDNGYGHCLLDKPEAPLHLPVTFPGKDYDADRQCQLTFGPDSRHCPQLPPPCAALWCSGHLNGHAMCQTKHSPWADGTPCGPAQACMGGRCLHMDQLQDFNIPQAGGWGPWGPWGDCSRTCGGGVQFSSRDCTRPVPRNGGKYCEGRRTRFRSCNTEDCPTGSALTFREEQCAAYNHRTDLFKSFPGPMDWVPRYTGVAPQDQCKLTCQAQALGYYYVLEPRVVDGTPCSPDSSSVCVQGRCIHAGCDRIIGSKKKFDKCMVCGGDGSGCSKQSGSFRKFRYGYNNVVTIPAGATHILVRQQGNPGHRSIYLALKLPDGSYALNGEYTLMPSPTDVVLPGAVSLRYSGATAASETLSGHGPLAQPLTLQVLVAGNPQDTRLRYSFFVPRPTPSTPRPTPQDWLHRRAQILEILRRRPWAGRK
Description: The Agg-1/Agg-2 FRET data for N-[(8-hydroxyquinolin-2-yl)(phenyl)methyl]-2-phenoxyacetamide and 2-{[(phenoxyacetyl)amino](phenyl)methyl}quinolin-8-yl phenoxyacetate is presented in Table 1.

[2] = molecular target: T2, recombinant human Aggrecanase-2 Agg2-Phe628 (Homo sapiens, UniProt Q9UNA0); experiment: Aggrecanase 2 in vitro enzyme assay (Agg-2 FRET, quenched fluorescent peptide substrate); format: biochemical; set-up: purified recombinant human Aggrecanase-2 Agg2-Phe628 (MW=41,737); This is a truncated form of full-length human aggrecanase-2; made in house; host or cells: CHO cells
T2 sequence (Q9UNA0 262-628 limits assumed): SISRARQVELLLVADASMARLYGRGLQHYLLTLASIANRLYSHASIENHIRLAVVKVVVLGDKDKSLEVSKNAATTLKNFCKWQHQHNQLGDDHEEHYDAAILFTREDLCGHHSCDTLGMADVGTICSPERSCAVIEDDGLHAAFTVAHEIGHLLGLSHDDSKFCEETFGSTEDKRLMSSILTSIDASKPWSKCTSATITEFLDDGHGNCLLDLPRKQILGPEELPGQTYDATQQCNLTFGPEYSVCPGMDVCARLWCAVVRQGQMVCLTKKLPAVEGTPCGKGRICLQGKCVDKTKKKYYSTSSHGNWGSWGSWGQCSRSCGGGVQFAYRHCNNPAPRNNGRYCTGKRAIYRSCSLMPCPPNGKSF
In short: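 Continuous FRET assay with purified truncated human Aggrecanase-2 Agg2-Phe628 (CHO-expressed, 0.5 μg/ml final) and brevican-derived Abz/Dnp peptide (25 μM final) in 50 mM HEPES pH 7.5, 100 mM NaCl, 5 mM CaCl2, 0.1% CHAPS, 5% glycerol. Enzyme preincubated with compound before substrate; fluorescence (ex 340/em 420 nm) followed kinetically 40 min at 30 °C.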

[3] = read-out: Agg-2 FRET Median IC50

Structure (SMILES): O=C(COc1ccccc1)NC(c1cc(Cl)c2cccnc2c1O)c1cccc2[nH]ccc12 (stereo not shown) [N-[(5-chloro-8-hydroxyquinolin-7-yl)(1H-indol-4-yl)methyl]-2-phenoxyacetamide]
inhibition at 0.8 µM ([1]; @ 800 nM, read-out: Agg1 %): 41% | IC50 ([2]; read-out: Agg2 IC50): 2100 nM | IC50 [2, 3]: 2080 nM

Structure (SMILES): O=C(COc1ccccc1)NC(c1ccc2c(c1)OCCO2)c1cc(Cl)c2cccnc2c1O (stereo not shown) [N-[(5-chloro-8-hydroxyquinolin-7-yl)(2,3-dihydro-1,4-benzodioxin-6-yl)methyl]-2-phenoxyacetamide]
inhibition at 7.4 µM ([1]; read-out: Agg1 %): 51% | IC50 ([2]; read-out: Agg2 IC50): 850 nM

Structure (SMILES): COc1cc(OC)cc(OCC(=O)NC(c2ccccc2Cl)c2cc(Cl)c3cccnc3c2O)c1 (stereo not shown) [N-[(5-chloro-8-hydroxyquinolin-7-yl)(2-chlorophenyl)methyl]-2-(3,5-dimethoxyphenoxy)acetamide]
IC50 [1]: ~22000 nM | IC50 ([2]; read-out: Agg2 IC50): 1000 nM

Structure (SMILES): O=C(COc1ccc(C2CCCC2)cc1)NC(c1ccccc1Cl)c1cc(Cl)c2cccnc2c1O (stereo not shown) [N-[(5-chloro-8-hydroxyquinolin-7-yl)(2-chlorophenyl)methyl]-2-(4-cyclopentylphenoxy)acetamide]
IC50 [1]: > 20000 nM | IC50 ([2]; read-out: Agg2 IC50): 2400 nM

Structure (SMILES): CC(C)c1ccc(OCC(=O)NC(c2ccccc2Cl)c2cc(Cl)c3cccnc3c2O)cc1 (stereo not shown) [N-[(5-chloro-8-hydroxyquinolin-7-yl)(2-chlorophenyl)methyl]-2-(4-isopropylphenoxy)acetamide]
inhibition at 50 µM ([1]; read-out: Agg1 %): 56% | IC50 ([2]; read-out: Agg2 IC50): 1400 nM

Structure (SMILES): CCCCCc1ccc(OCC(=O)NC(c2ccccc2Cl)c2cc(Cl)c3cccnc3c2O)cc1 (stereo not shown) [N-[(5-chloro-8-hydroxyquinolin-7-yl)(2-chlorophenyl)methyl]-2-(4-pentylphenoxy)acetamide]
inhibition at 33 µM ([1]; read-out: Agg1 %): 44% | inhibition at 22 µM ([2]; @ 22000 nM, read-out: Agg2 %): 50%

Structure (SMILES): CCCc1ccc(OCC(=O)NC(c2ccccc2Cl)c2cc(Cl)c3cccnc3c2O)cc1 (stereo not shown) [N-[(5-chloro-8-hydroxyquinolin-7-yl)(2-chlorophenyl)methyl]-2-(4-propylphenoxy)acetamide]
inhibition at […] ([1]; @ 1100 nM, read-out: Agg1 %): 44% | inhibition at […] ([2]; @ 2500 nM): 47%

Structure (SMILES): O=C(COc1ccccc1)NC(c1ccccc1N1CCOCC1)c1cc(Cl)c2cccnc2c1O (stereo not shown) [N-[(5-chloro-8-hydroxyquinolin-7-yl)(2-morpholin-4-ylphenyl)methyl]-2-phenoxyacetamide]
inhibition at 22 µM ([1]; read-out: Agg1 %): 59% | inhibition at […] ([2]; @ 1200 nM): 43%

Structure (SMILES): O=C(COc1ccccc1)NC(c1ccccc1[N+](=O)[O-])c1cc(Cl)c2cccnc2c1O (stereo not shown) [N-[(5-chloro-8-hydroxyquinolin-7-yl)(2-nitrophenyl)methyl]-2-phenoxyacetamide]
inhibition at 7.4 µM ([1]; read-out: Agg1 %): 48% | inhibition at […] ([2]; @ 1200 nM): 58% | IC50 [2, 3]: 1210 nM

Structure (SMILES): COc1ccc(C(NC(=O)COc2ccccc2)c2cc(Cl)c3cccnc3c2O)cc1OC (stereo not shown) [N-[(5-chloro-8-hydroxyquinolin-7-yl)(3,4-dimethoxyphenyl)methyl]-2-phenoxyacetamide]
IC50 [1]: > 1500 nM | IC50 [2, 3]: 1060 nM and 5190 nM

Structure (SMILES): Cc1ccc(C(NC(=O)COc2ccccc2)c2cc(Cl)c3cccnc3c2O)cc1C (stereo not shown) [N-[(5-chloro-8-hydroxyquinolin-7-yl)(3,4-dimethylphenyl)methyl]-2-phenoxyacetamide]
IC50 [1]: 66000 to 200000 nM | IC50 ([2]; read-out: Agg2 IC50): 1500 nM

Structure (SMILES): Cc1ccsc1C(NC(=O)COc1ccccc1)c1cc(Cl)c2cccnc2c1O (stereo not shown) [N-[(5-chloro-8-hydroxyquinolin-7-yl)(3-methyl-2-thienyl)methyl]-2-phenoxyacetamide]
inhibition at 33 µM ([1]; read-out: Agg1 %): 33% | IC50 ([2]; read-out: Agg2 IC50): 1370 nM | IC50 [2, 3]: 1370 nM

Structure (SMILES): Cc1ccsc1C(NC(=O)Cc1ccccc1)c1cc(Cl)c2cccnc2c1O (stereo not shown) [N-[(5-chloro-8-hydroxyquinolin-7-yl)(3-methyl-2-thienyl)methyl]-2-phenylacetamide]
inhibition at 20 µM ([1]; @ 20000 nM, read-out: Agg1 %): 52% | IC50 ([2]; read-out: Agg2 IC50): 2540 nM | IC50 [2, 3]: 2540 nM

Structure (SMILES): O=C(COc1ccccc1)NC(c1ccc(F)cc1)c1cc(Cl)c2cccnc2c1O (stereo not shown) [N-[(5-chloro-8-hydroxyquinolin-7-yl)(4-fluorophenyl)methyl]-2-phenoxyacetamide]
inhibition at 67 µM ([1]; read-out: Agg1 %): 48% | IC50 ([2]; read-out: Agg2 IC50): 1200 nM

Structure (SMILES): O=C(Cc1ccccc1)NC(c1ccc(F)cc1)c1cc(Cl)c2cccnc2c1O (stereo not shown) [N-[(5-chloro-8-hydroxyquinolin-7-yl)(4-fluorophenyl)methyl]-2-phenylacetamide]
inhibition at 3.7 µM ([1]; @ 3700 nM, read-out: Agg1 %): 33% | IC50 ([2]; read-out: Agg2 IC50): 2140 nM | IC50 [2, 3]: 2140 nM

Structure (SMILES): CCCCC#Cc1ccc(C(NC(=O)COc2ccccc2)c2cc(Cl)c3cccnc3c2O)cc1 (stereo not shown) [N-[(5-chloro-8-hydroxyquinolin-7-yl)(4-hex-1-yn-1-ylphenyl)methyl]-2-phenoxyacetamide]
inhibition at 50 µM ([1]; read-out: Agg1 %): 47% | inhibition at 33.3 µM ([2]; @ 33300 nM): 48%

Structure (SMILES): CC(C)c1ccc(C(NC(=O)COc2ccccc2)c2cc(Cl)c3cccnc3c2O)cc1 (stereo not shown) [N-[(5-chloro-8-hydroxyquinolin-7-yl)(4-isopropylphenyl)methyl]-2-phenoxyacetamide]
inhibition at 33 µM ([1]; read-out: Agg1 %): 47% | inhibition at […] ([2]; @ 2500 nM): 45%

Continued, values first:

inhibition at 11 µM ([1]; @ 11000 nM, read-out: Agg1 %): 46% | inhibition at […] ([2]; @ 2500 nM): 53%
Structure (SMILES): Cn1cc(C(NC(=O)COc2ccccc2)c2cc(Cl)c3cccnc3c2O)c2ccccc21 (stereo not shown) [N-[(5-chloro-8-hydroxyquinolin-7-yl)(1-methyl-1H-indol-3-yl)methyl]-2-phenoxyacetamide]

inhibition at 7.4 µM ([1]; read-out: Agg1 %): 48% | inhibition at […] ([2]; @ 1900 nM): 69%
Structure (SMILES): O=C(COc1ccccc1)NC(c1cc(Cl)c2cccnc2c1O)c1cccc2cc[nH]c12 (stereo not shown) [N-[(5-chloro-8-hydroxyquinolin-7-yl)(1H-indol-7-yl)methyl]-2-phenoxyacetamide]

inhibition at 10 µM ([1]; @ 10000 nM, read-out: Agg1 %): 48% | IC50 ([2]; read-out: Agg2 IC50): 1280 nM
Structure (SMILES): CCc1cccc(OCC(=O)NC(c2ccccc2Cl)c2cc(Cl)c3cccnc3c2O)c1 (stereo not shown) [N-[(5-chloro-8-hydroxyquinolin-7-yl)(2-chlorophenyl)methyl]-2-(3-ethylphenoxy)acetamide]

IC50 [1]: > 22000 nM | IC50 ([2]; read-out: Agg2 IC50): 1550 nM | IC50 [2, 3]: 1550 nM and 350 nM
Structure (SMILES): O=C(COc1ccccc1)NC(c1ccccc1Cl)c1cc(Cl)c2cccnc2c1O (stereo not shown) [N-[(5-chloro-8-hydroxyquinolin-7-yl)(2-chlorophenyl)methyl]-2-phenoxyacetamide]

inhibition at […] ([1]; @ 1200 nM, read-out: Agg1 %): 29% | IC50 ([2]; read-out: Agg2 IC50): 1540 nM | IC50 [2, 3]: 1540 nM
Structure (SMILES): O=C(Cc1ccccc1)NC(c1ccccc1Cl)c1cc(Cl)c2cccnc2c1O (stereo not shown) [N-[(5-chloro-8-hydroxyquinolin-7-yl)(2-chlorophenyl)methyl]-2-phenylacetamide]

inhibition at 67 µM ([1]; read-out: Agg1 %): 51% | IC50 ([2]; read-out: Agg2 IC50): 2430 nM | IC50 [2, 3]: 3900 nM and 2430 nM
Structure (SMILES): O=C(COc1ccccc1)NC(c1ccco1)c1cc(Cl)c2cccnc2c1O (stereo not shown) [N-[(5-chloro-8-hydroxyquinolin-7-yl)(2-furyl)methyl]-2-phenoxyacetamide]

IC50 [1]: > 22000 nM | IC50 ([2]; read-out: Agg2 IC50): 3460 nM | IC50 [2, 3]: 3460 nM
Structure (SMILES): O=C(COc1ccccc1)NC(c1ccoc1)c1cc(Cl)c2cccnc2c1O (stereo not shown) [N-[(5-chloro-8-hydroxyquinolin-7-yl)(3-furyl)methyl]-2-phenoxyacetamide]

inhibition at 22 µM ([1]; read-out: Agg1 %): 53% | IC50 ([2]; read-out: Agg2 IC50): 1230 nM | IC50 [2, 3]: 1230 nM and 488 nM
Structure (SMILES): O=C(COc1ccccc1)NC(c1cccc([N+](=O)[O-])c1)c1cc(Cl)c2cccnc2c1O (stereo not shown) [N-[(5-chloro-8-hydroxyquinolin-7-yl)(3-nitrophenyl)methyl]-2-phenoxyacetamide]

inhibition at 22 µM ([1]; read-out: Agg1 %): 62% | IC50 ([2]; read-out: Agg2 IC50): 800 nM
Structure (SMILES): COc1ccc(C(NC(=O)COc2ccccc2)c2cc(Cl)c3cccnc3c2O)c2ccccc12 (stereo not shown) [N-[(5-chloro-8-hydroxyquinolin-7-yl)(4-methoxy-1-naphthyl)methyl]-2-phenoxyacetamide]

IC50 [1]: ~11000 nM | inhibition at […] ([2]; @ 2500 nM): 72%
Structure (SMILES): O=C(COc1ccccc1)NC(c1cc(Cl)c2cccnc2c1O)c1coc2ccccc2c1=O (stereo not shown) [N-[(5-chloro-8-hydroxyquinolin-7-yl)(4-oxo-4H-chromen-3-yl)methyl]-2-phenoxyacetamide]
